{
  "source": "ChEMBL document CHEMBL1148484",
  "about": "“Design, synthesis, and biological evaluation of doxorubicin-formaldehyde conjugates targeted to breast cancer cells” (J Med Chem, 2004)",
  "key": {"[1]": {"target": "Estrogen receptor (Homo sapiens, UniProt Q92731+P03372)", "conditions": "mcf-7", "description": "Inhibition of [3H]E2 binding to estrogen receptor alpha in MCF-7 cell lysate"}, "[2]": {"system": "MCF7", "experiment": "cells", "conditions": "Homo sapiens", "description": "Inhibition of estrogen receptor positive MCF-7 breast cancer cell proliferation"}, "[3]": {"system": "MDA-MB-435", "experiment": "cells", "conditions": "Homo sapiens", "description": "Inhibition of MDA-MB-435 breast cancer cell proliferation"}, "[4]": {"system": "MDA-MB-231", "experiment": "cells", "conditions": "Homo sapiens", "description": "Inhibition of estrogen receptor negative MDA-MB-231 breast cancer cell proliferation"}, "[5]": {"system": "NCI/ADR-RES", "experiment": "cells", "conditions": "Homo sapiens", "description": "Inhibition of MCF-7/Adr breast cancer cell proliferation"}},
  "data": [
    {"smiles": "CC/C(=C(/c1ccc(O)cc1)c1ccc(OCN(C)C)cc1)c1ccccc1", "values": [
      {"measurement": "IC50", "setting": "[1]", "result": 5, "unit": "nM"},
      {"measurement": "IC50", "setting": "[2]", "result": 300, "unit": "nM"},
      {"measurement": "IC50", "setting": "[3]", "result": 20000, "unit": "nM"},
      {"measurement": "IC50", "setting": "[4]", "result": 30000, "unit": "nM"},
      {"measurement": "IC50", "setting": "[5]", "result": 40000, "unit": "nM"}
    ]},
    {"smiles": "CCC(c1ccccc1)C(c1ccc(O)cc1)c1ccc(OCCN(C)CCOCCO/N=C/c2ccc(O)c(C(N)=O)c2)cc1", "note": "(centres undefined)", "values": [
      {"measurement": "IC50", "setting": "[1]", "result": 150, "unit": "nM"}
    ]},
    {"smiles": "CCC(c1ccccc1)C(c1ccc(O)cc1)c1ccc(OCCN(C)CCO/N=C/c2ccc(O)c(C(N)=O)c2)cc1", "note": "(centres undefined)", "values": [
      {"measurement": "IC50", "setting": "[1]", "result": 300, "unit": "nM"}
    ]},
    {"smiles": "CC/C(=C(/c1ccc(O)cc1)c1ccc(OCN(C)C)cc1)c1ccccc1.COc1cccc2c1C(=O)c1c(O)c3c(c(O)c1C2=O)C[C@@](O)(C(=O)CO)C[C@@H]3O[C@H]1C[C@H](N)[C@H](O)[C@H](C)O1", "values": [
      {"measurement": "IC50", "setting": "[2]", "result": 70, "unit": "nM"},
      {"measurement": "IC50", "setting": "[3]", "result": 100, "unit": "nM"},
      {"measurement": "IC50", "setting": "[4]", "result": 100, "unit": "nM"},
      {"measurement": "IC50", "setting": "[5]", "result": 2000, "unit": "nM"}
    ]},
    {"smiles": "CC/C(=C(/c1ccc(O)cc1)c1ccc(OCCN(C)CCO/N=C/c2ccc(O)c(C(=O)NCNC3CC(O[C@H]4C[C@](O)(C(=O)CO)Cc5c(O)c6c(c(O)c54)C(=O)c4c(OC)cccc4C6=O)OC(C)C3O)c2)cc1)c1ccccc1", "note": "(some centres undefined)", "values": [
      {"measurement": "IC50", "setting": "[1]", "result": 300, "unit": "nM"},
      {"measurement": "IC50", "setting": "[2]", "result": 80, "unit": "nM"},
      {"measurement": "IC50", "setting": "[3]", "result": 60, "unit": "nM"},
      {"measurement": "IC50", "setting": "[4]", "result": 40, "unit": "nM"},
      {"measurement": "IC50", "setting": "[5]", "result": 250, "unit": "nM"}
    ]},
    {"smiles": "CC/C(=C(/c1ccc(O)cc1)c1ccc(OCCN(C)CCOCCO/N=C/c2ccc(O)c(C(=O)NCNC3CC(O[C@H]4C[C@](O)(C(=O)CO)Cc5c(O)c6c(c(O)c54)C(=O)c4c(OC)cccc4C6=O)OC(C)C3O)c2)cc1)c1ccccc1", "note": "(some centres undefined)", "values": [
      {"measurement": "IC50", "setting": "[1]", "result": 300, "unit": "nM"},
      {"measurement": "IC50", "setting": "[2]", "result": 20, "unit": "nM"},
      {"measurement": "IC50", "setting": "[3]", "result": 40, "unit": "nM"},
      {"measurement": "IC50", "setting": "[4]", "result": 30, "unit": "nM"},
      {"measurement": "IC50", "setting": "[5]", "result": 70, "unit": "nM"}
    ]},
    {"smiles": "CCC(c1ccccc1)C(c1ccc(O)cc1)c1ccc(OCCN(C)CCOCCOCCO/N=C/c2ccc(O)c(C(N)=O)c2)cc1", "note": "(centres undefined)", "values": [
      {"measurement": "IC50", "setting": "[1]", "result": 150, "unit": "nM"}
    ]},
    {"smiles": "CC/C(=C(/c1ccc(O)cc1)c1ccc(OCCN(C)CCOCCOCCO/N=C/c2ccc(O)c(C(=O)NCNC3CC(O[C@H]4C[C@](O)(C(=O)CO)Cc5c(O)c6c(c(O)c54)C(=O)c4c(OC)cccc4C6=O)OC(C)C3O)c2)cc1)c1ccccc1", "note": "(some centres undefined)", "values": [
      {"measurement": "IC50", "setting": "[1]", "result": 200, "unit": "nM"},
      {"measurement": "IC50", "setting": "[2]", "result": 30, "unit": "nM"},
      {"measurement": "IC50", "setting": "[3]", "result": 40, "unit": "nM"},
      {"measurement": "IC50", "setting": "[4]", "result": 30, "unit": "nM"},
      {"measurement": "IC50", "setting": "[5]", "result": 60, "unit": "nM"}
    ]},
    {"smiles": "COc1cccc2c1C(=O)c1c(O)c3c(c(O)c1C2=O)C[C@@](O)(C(=O)CO)C[C@@H]3O[C@H]1C[C@H](N)[C@H](O)[C@H](C)O1", "note": "[DOXORUBICIN]", "values": [
      {"measurement": "IC50", "setting": "[3]", "result": 150, "unit": "nM"},
      {"measurement": "IC50", "setting": "[4]", "result": 300, "unit": "nM"},
      {"measurement": "IC50", "setting": "[5]", "result": 10000, "unit": "nM"}
    ]},
    {"smiles": "CC/C(=C(\\c1ccccc1)c1ccc(OCCN(C)C)cc1)c1ccccc1", "note": "[TAMOXIFEN]", "values": [
      {"measurement": "IC50", "setting": "[2]", "result": 70, "unit": "nM"},
      {"measurement": "IC50", "setting": "[3]", "result": 50, "unit": "nM"},
      {"measurement": "IC50", "setting": "[4]", "result": 80, "unit": "nM"},
      {"measurement": "IC50", "setting": "[5]", "result": 2000, "unit": "nM"}
    ]}
  ]
}
